d = 2'-deoxy (DNA); r = 2'-OH (RNA)
Assays:
HCV sub-genomic replicon = test: HCV genome replication in a synthetic sub-genomic replicon line; details: dose-dependent (FIG. 4a)
Bmal1 mRNA = Bmal1 mRNA levels by qPCR in hepatocytes / Huh-7 cells; details: qPCR (FIG. 3a)
HCV infected Huh-7 cells = test: Viral RNA load in chronic HCV infected cells by qPCR; format: cell-based, hepatitis C virus; details: increasing dose, 24 hours, qPCR (FIG. 5a)
Method: To assess the ability of REV-ERB activators to limit HCV RNA replication, HCV infected Huh-7 cells (verified by NSSA staining) were treated with GSK4112 or SR9009 at a range of doses. […], HCV infection levels were quantified by reverse transcriptase polymerase chain measurement of viral RNA (see FIG. 4b).
Huh-7 cells were treated with either REV-ERBα agonist GSK4112 or SR9009 for 16 hour at a range of doses. Medium containing the drug was then removed following viral inoculation and infectivity assessed 24 hours later. To evaluate the efficacy of these drugs in viral replication, chronic infected HCV or HBV cells were treated with REV-ERBα activators at a range of concentrations and viral load determined by real-time qPCR 24 hours later.
(§1) The ability of REV-ERBα activators to reduce viral burden of chronic HCV infected cells was then tested. […] An identical assay was performed in two chronic HBV infected cell lines—2215 and AD38.
HCVcc SA13/JFH-1 infected Huh-7 cells were also treated with increasing concentrations of GSK2667 for 24 h and viral RNA levels measured after 24 h.

HIV virus (NL4.3) = test: HIV (NL4.3) infection of TZM-bl cells, HIV promoter luciferase assay; details: for HIV infection (HIV promoter activity): increasing dose, 24 h (FIGS. 11a, 11b)
[1] = tested on: pseudoparticles expressing viral glycoproteins (HCV, VSV, Lassa, Flu, MLC, Ebola); format: cell-based
Bna1 promoter = details: cited from earlier work
HCVpp = format: cell-based, hepatitis C virus; details: cells treated with Rev-erbα agonists (FIG. 3c, 3d)
[2] = tested on: HCV sub-genomic replicons genotypes 1b, 2a, 3a; test: HCV sub-genomic luciferase replicons genotypes 1-3 in Huh-7.5-SEC14L2 cells; details: genotypes 1-3 replicons, increasing concentrations, 24 h (FIGS. 10c-e)
[3] = tested on: chronic HBV infected cell lines 2215 and AD38; test: HBV RNA levels in chronic HBV infected cell lines; format: cell-based, hepatitis B virus; details: 2215 and AD38 cells, 48 hours (FIG. 5c)
Method: Huh-7 cells were treated with either REV-ERBα agonist GSK4112 or SR9009 for 16 hour at a range of doses. Medium containing the drug was then removed following viral inoculation and infectivity assessed 24 hours later.
as §1

[4] = tested on: HCV genotype 3a S52 replicon; details: REV-ERB agonists 20 μM with increasing DAA, 48 h (FIGS. 10f, 10g)
Zika virus = details: Huh-7, infectivity after 24 h and 48 h (FIG. 12)

| Compound | Replication of the HCV genome (HCV sub-genomic replicon) | Bmal1 mRNA levels (Bmal1 mRNA) | Viral load (HCV genomic RNA) (HCV infected Huh-7 cells) | HIV infection (HIV promoter activity) (HIV virus (NL4.3)) | Effect on the anti-viral activity (HCV entry) of REV-ERBα agonists GSK4112/SR9009 (HCVpp) | Combined effect of REV-ERB agonist and DAA on HCV genotype 3 replication [4] | also measured |
| --- | --- | --- | --- | --- | --- | --- | --- |
| CC(C)(C)OC(=O)CN(Cc1ccc(Cl)cc1)Cc1ccc([N+](=O)[O-])s1 [GSK4112] | inhibited | decreased Bmal1 mRNA levels | dose-dependent reduction in viral load | inhibit HIV infection |  |  | Entry of pseudoparticles of multiple viruses [1]: inhibitory effect on entry was replicated across multiple viruses including lassa and ebola |
| CS(=O)(=O)N(Cc1ccco1)CC(O)Cn1c2ccccc2c2ccccc21 (stereo not shown) [KL001] |  |  |  |  |  |  | Bmal1 promoter activity (Bna1 promoter): inhibit Bna1 promoter activity |
| CCOC(=O)C1Cc2ccccc2CN1C(=O)c1ccc(SC)s1 (stereo not shown) [SR8278] |  |  |  | promotes HIV infection | rescued |  |  |
| CCOC(=O)N1CCC(CN(Cc2ccc(Cl)cc2)Cc2ccc([N+](=O)[O-])s2)C1 (stereo not shown) [SR9009] | inhibited | decreased Bmal1 mRNA levels | dose-dependent reduction in viral load | inhibit HIV infection |  | additive effects | Antiviral activity against HCV RNA replication across genotypes [2]: pan-genomic; HBV RNA levels [3]: significantly reduced HBV RNA levels; Zika infection (Zika virus): inhibit Zika infection |
| CC(C)OC(=O)[C@H](C)N[P@](=O)(OC[C@H]1O[C@@H](n2ccc(=O)[nH]c2=O)[C@](C)(F)[C@@H]1O)Oc1ccccc1 [Sofosbuvir] |  |  |  |  |  | additive effects |  |
| Rev-erbα siRNA: rev-erba siRNA duplex from Life technologies, SEQ ID NO 5 and 6, two-base DNA overhang (chain 1 GGUGUCUGAAGAAUGAGAATT; chain 2 UUCUCAUUCUUCAGACACCTT; sugars from the 5' end r19 d2, backbone and methylation of C not given here) |  |  |  |  | rescued |  | HIV promoter activity after siRNA knockdown (HIV virus (NL4.3); 48 h post-siRNA, HIV 24 h (FIG. 11c)): increased HIV promoter activity |
